From patent US10172777B2, “Phytospingosine derivative and composition containing same” (AMOREPACIFIC CORPORATION, priority 2015, dated 2019)

Assays:
[1] = system: Enterococcus faecalis; assay: Antibacterial test (MIC, double dilution in 96-well plate); format: cell-based; conditions: P. ovale medium, cultured 32 to 48 hours
Procedure: (§1) As six representative microbes (fungi, and bacteria) causing skin diseases, each of Malassezia globosa, Malassezia restricta, Candia albicans (C. albicans), Aspergillus niger (A. niger), Enterococcus faecalis, and Brevundimonas vesicularis was seeded in a P. ovale medium, and cultured at 32° C. for 3 days while stirring. The resulting culture broth was diluted with P. ovale at a density of 1.0×10^7 CFU/mL, and the diluted culture broth was used as a test bacterial solution. […] (1) 200 μL of the sample solution prepared in (2) was added to the first row of a 96-well plate. 100 μL of P. ovale was added to the other wells. (2) After the first row of the mixtures were thoroughly mixed, 100 μL of each of the mixtures was taken, added to the second row, and then thoroughly mixed, and 100 μL of each of the mixtures was again taken, and added to the third row. Thereafter, this procedure was repeated to perform a double dilution. (3) After each of the microbes were cultured for 32 to 48 hours, a degree of suspension was used to determine whether the bacteria were growing. […] When it was difficult to determine whether the bacteria were growing due to the opaque mixed solution, the growth of the bacteria was observed under a microscope.

[2] = system: Malassezia globosa; assay: as above; format: cell-based; conditions: P. ovale medium, cultured 32 to 48 hours
Procedure: as §1

[3] = system: Candia albicans (C. albicans); assay: as above; format: cell-based; conditions: P. ovale medium, cultured 32 to 48 hours
Procedure: as §1

[4] = system: Brevundimonas vesicularis; assay: as above; format: cell-based; conditions: P. ovale medium, cultured 32 to 48 hours
Procedure: as §1

[5] = system: Malassezia restricta; assay: as above; format: cell-based; conditions: P. ovale medium, cultured 32 to 48 hours
Procedure: as §1

[6] = system: Aspergillus niger (A. niger); assay: as above; format: cell-based; conditions: P. ovale medium, cultured 32 to 48 hours
Procedure: as §1

[7] = Solubility test: precipitation behavior in aqueous solution kept at room temperature; format: physicochemical; design: key: ◯: Not precipitated; Δ: Not remarkably precipitated but fine particles are generated; X: Remarkably precipitated; conditions: dissolved at 50 to 60° C.
Procedure: Thereafter, the resulting solution was kept at room temperature to check a precipitation behavior over time. As Comparative Example, the same experiment was performed using phytospingosine.

[8] = solvent isocetyl alcohol; cited from earlier work
[9] = 0.1% by weight in distilled water, 1 day
[10] = 0.1% by weight in distilled water, 7 days
[11] = 0.1% by weight in distilled water, 30 days
[12] = 1.0% by weight in distilled water, 1 day
[13] = 1.0% by weight in distilled water, 7 days
[14] = 1.0% by weight in distilled water, 30 days

minimum inhibitory concentration (MIC) [1]	minimum inhibitory concentration (MIC) [2]	minimum inhibitory concentration (MIC) [3]	minimum inhibitory concentration (MIC) [4]	minimum inhibitory concentration (MIC) [5]	minimum inhibitory concentration (MIC) [6]	precipitation behavior over time [7, 9]	precipitation behavior over time [7, 10]	precipitation behavior over time [7, 11]	precipitation behavior over time [7, 12]	precipitation behavior over time [7, 13]	precipitation behavior over time [7, 14]	Structure (SMILES)	content dissolved in isocetyl alcohol [8]
0.062	0.001954	0.0312	<0.00097	0.001954	0.5	Δ	X	X	X	X	X	CCCCCCCCCCCCCC[C@@H](O)[C@@H](O)[C@@H](N)CO [Comparative Example, phytospingosine]	approximately 1 % by weight
0.0039	0.001954	0.0019	<0.00097	0.001954	0.25	◯	◯	◯	◯	◯	◯	CCCCCCCCCCCCCC[C@@H](O)[C@@H](O)[C@H](CO)NCC1(O)OC[C@@H](O)[C@@H](O[C@H]2O[C@H](CO)[C@@H](O)[C@H](O)[C@H]2O)[C@@H]1O (stereo partly shown) [Example 1]	
						◯	◯	◯	◯	◯	◯	CCCCCCCCCCCCCC[C@@H](O)[C@@H](O)[C@H](CO)NCC1(O)OC[C@@H](O)[C@@H](O[C@H]2O[C@H](CO)[C@H](O)[C@H](O)[C@H]2O)[C@@H]1O (stereo partly shown) [Example 2]	
